For this experiment, the target named is T1, IDE (Homo sapiens, UniProt P14735).
T1 construct: made in house; host or cells: bacteria
T1 sequence (P14735 1-1019): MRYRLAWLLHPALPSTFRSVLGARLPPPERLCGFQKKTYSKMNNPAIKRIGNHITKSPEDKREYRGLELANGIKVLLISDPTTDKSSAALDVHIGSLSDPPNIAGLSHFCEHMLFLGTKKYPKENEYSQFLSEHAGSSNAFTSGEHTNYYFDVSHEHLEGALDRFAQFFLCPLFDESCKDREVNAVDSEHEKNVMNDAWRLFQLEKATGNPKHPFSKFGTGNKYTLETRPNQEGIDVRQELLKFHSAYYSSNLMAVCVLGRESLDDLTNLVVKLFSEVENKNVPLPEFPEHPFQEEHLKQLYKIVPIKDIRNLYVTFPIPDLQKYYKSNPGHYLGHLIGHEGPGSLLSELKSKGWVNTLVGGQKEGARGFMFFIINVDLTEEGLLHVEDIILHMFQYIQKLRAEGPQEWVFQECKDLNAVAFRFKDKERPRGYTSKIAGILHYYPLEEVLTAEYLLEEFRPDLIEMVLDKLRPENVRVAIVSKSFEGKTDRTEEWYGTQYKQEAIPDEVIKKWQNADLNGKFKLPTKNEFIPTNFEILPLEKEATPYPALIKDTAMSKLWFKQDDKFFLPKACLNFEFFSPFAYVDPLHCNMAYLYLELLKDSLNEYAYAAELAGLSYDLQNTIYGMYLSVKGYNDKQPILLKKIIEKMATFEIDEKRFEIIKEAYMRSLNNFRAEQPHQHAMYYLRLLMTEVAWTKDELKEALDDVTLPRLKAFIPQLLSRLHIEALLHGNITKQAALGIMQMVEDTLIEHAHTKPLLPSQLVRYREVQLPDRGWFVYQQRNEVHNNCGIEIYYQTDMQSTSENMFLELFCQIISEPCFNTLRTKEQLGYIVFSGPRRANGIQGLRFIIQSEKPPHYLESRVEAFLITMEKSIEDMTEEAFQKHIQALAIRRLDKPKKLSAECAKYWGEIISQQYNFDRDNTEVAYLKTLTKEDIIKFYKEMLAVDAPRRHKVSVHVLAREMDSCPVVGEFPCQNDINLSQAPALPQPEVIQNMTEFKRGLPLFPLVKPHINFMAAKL
In words: IDE activity assay, FAßB (amyloid ß-protein) degradation (fluorescence polarization). Type of experiment: biochemical. As for the experimental part:
Taken together with the potency of all peptides against insulin (Table 1), we concluded that P12-3A represented the best inhibitor for further studies, and a highly purified, deliberately cyclized version (Fig 3A) was synthesized. […] Based on its potency, stability and selectivity for IDE, P12-3A was selected for use in downstream assays.
IDE activity was quantified by monitoring the degradation of Mca-[…](Dnp) (FRET1, 5 μM), fluoresceinated and biotinylated amyloid ß-protein (FAßB; 500 nM) or recombinant human insulin (50 nM) in PBS supplemented with 0.05% BSA. FRET1 degradation was measured by changes in fluorescence (λex = 340 nm, λem = 420 nm); FAßB degradation was monitored by fluorescence polarization (λex = 488 nm, λem = 525 nm), as described; and insulin degradation was quantified by ELISA. In vitro activity assays incorporated recombinant human IDE (1 nM) purified from bacteria. For quantitation of insulin degradation in primary murine skin fibroblasts, cells (1 x 10^5/well) were plated in 96-well plates and maintained in DMEM supplemented with 10% fetal bovine serum (FBS), 2mM glutamine, penicillin and streptomycin. After addition of insulin (10 nM or 100 nM), samples of conditioned medium were removed daily and quickly frozen, then insulin levels were quantified in parallel by ELISA according to manufacturer’s recommendations (Crystal Chem, Downers Grove, IL, USA). Assessment of the activity of P12-3A against a variety of matrix-metalloproteases was conducted using the Matrix Metalloproteinase (MMP) Inhibitor Profiling Kit, Fluorometric RED (Enzo Life Sciences, Inc., Farmingdale, NY, USA) according to manufacturer’s recommendations using the broad-spectrum MMP inhibitor, NNGH, as a positive control.
A general note: Polarisation of emitted light reports the rotation of a fluorescent probe.

Each structure is given as a SMILES string. Bridge positions count the residues as written; N and C are the ends. Peptide text beside a SMILES is read from it.

Turning to `CC(C)C[C@H](NC(=O)[C@H](CO)NC(=O)[C@@H](N)CCC(N)=O)C(=O)N1CCC[C@H]1C(=O)N[C@@H](Cc1c[nH]c2ccccc12)C(=O)N[C@H]1CSSC[C@@H](C(=O)N[C@H](C(=O)N[C@H](C(N)=O)[C@@H](C)O)C(C)C)NC(=O)[C@H](Cc2c[nH]cn2)NC(=O)[C@@H]2CCCN2C(=O)[C@H](Cc2ccc(O)cc2)NC1=O` [P12-3A] (H-QSLPWCYPHCVT-NH2; disulfide 6-10 (inferred)), the remaining activity at 0.0005 µM (FAßB, P12-3A 0.0005 uM, Replicates 4-6, read-out: Percent Activity (normalized source data)) came out at 103%. Further, the remaining activity at 0.0016 µM (FAßB, P12-3A 0.0016 uM, Replicates 4-6, read-out: Percent Activity (normalized source data)) stood at 102%. Also, for the setting “FAßB, P12-3A 0.005 uM, Replicates 4-6, read-out: Percent Activity (normalized source data)”, the remaining activity at 0.005 µM turned out to be 103%. Also, the remaining activity at 0.016 µM (FAßB, P12-3A 0.016 uM, Replicates 4-6, read-out: Percent Activity (normalized source data)) was found to be 77.6%. The remaining activity at 0.05 µM (FAßB, P12-3A 0.050 uM, Replicates 4-6, read-out: Percent Activity (normalized source data)) amounted to 88.7%. Besides, the remaining activity at 0.12 µM (FAßB, P12-3A 0.12 uM, Replicates 1-3, read-out: Percent Activity (normalized source data)) was 96.6%. Moreover, the remaining activity at 0.16 µM (FAßB, P12-3A 0.16 uM, Replicates 4-6, read-out: Percent Activity (normalized source data)) is 93.1%. For the same molecule, for the setting “FAßB, P12-3A 0.24 uM, Replicates 1-3, read-out: Percent Activity (normalized source data)”, the remaining activity at 0.24 µM amounted to 79.9%. Moreover, the remaining activity at 0.49 µM (FAßB, P12-3A 0.49 uM, Replicates 1-3, read-out: Percent Activity (normalized source data)) came to 73.7%. Besides, the remaining activity at 0.5 µM (FAßB, P12-3A 0.50 uM, Replicates 4-6, read-out: Percent Activity (normalized source data)) was found to be 85.8%. The remaining activity at 0.98 µM (FAßB, P12-3A 0.98 uM, Replicates 1-3, read-out: Percent Activity (normalized source data)) came to 66.9%. Further, the remaining activity at 1.6 µM (FAßB, P12-3A 1.6 uM, Replicates 4-6, read-out: Percent Activity (normalized source data)) was found to be 61.7%. Also, the remaining activity at 3.91 µM (FAßB, P12-3A 3.91 uM, Replicates 1-3, read-out: Percent Activity (normalized source data)) is 48.4%. Also, the remaining activity at 5 µM (FAßB, P12-3A 5.0 uM, Replicates 4-6, read-out: Percent Activity (normalized source data)) is 48.4%. In addition, the remaining activity at 7.81 µM (FAßB, P12-3A 7.81 uM, Replicates 1-3, read-out: Percent Activity (normalized source data)) was found to be 43.4%. For the same molecule, under “FAßB, P12-3A 15.6 uM, Replicates 1-3, read-out: Percent Activity (normalized source data)”, the remaining activity at 15.6 µM was 45.5%. The remaining activity at 31.2 µM (FAßB, P12-3A 31.2 uM, Replicates 1-3, read-out: Percent Activity (normalized source data)) is 38.5%. For the same molecule, the remaining activity at 62.5 µM (FAßB, P12-3A 62.5 uM, Replicates 1-3, read-out: Percent Activity (normalized source data)) was determined as 10.9%. In addition, the remaining activity at 250 µM (FAßB, P12-3A 250 uM, Replicates 1-3, read-out: Percent Activity (normalized source data)) worked out at 9.54%. The “inhibition of IDE in the selectivity panel” value (P12-3A 100 μM, S4 Fig) is given as “significant inhibition was observed exclusively for IDE”.

(Values after paper PMC5814047, “Peptidic inhibitors of insulin-degrading enzyme with potential for dermatological applications discovered via phage display” (PLoS ONE, 2018).)
